{"source": "patent US20040054130A1", "about": "“Insulin potentiating peptides” (priority 2000, published 2004)", "key": {"[1]": {"test_system": "Zucker (fa/fa) rat hemidiaphragm muscle", "experiment": "In vitro glycogen synthesis (glucose incorporation into glycogen) in hemidiaphragm muscle with exogenous insulin", "assay_type": "cell-based", "procedure": "In vitro insulin-potentiating effects of the synthetic peptide analogues were assessed by measuring the rates of exogenous glucose incorporation into glycogen in rat hemidiaphragms (Lim et al, 1992). Hemidiaphragms from overnight-fasted Zucker fatty(fa/fa) female rats were dissected, and divided into segments of approximate 35-50 mg each. Tissues from the same rat were used for all groups. The tissue was incubated in 2 ml of Krebs-Ringer bicarbonate (KRB) buffer (pH 7.4) containing [^14C]glucose (5.5 mM, final specific activity 0.05 mCi/mmol) under an atmosphere of 95% 02-5% CO2 at 37° C. for 1.5 hr. After incubation, tissues were removed, washed with cold buffer and blotted. Tissues were digested, the muscle glycogen was precipitated and the ^14C-radioactivity was counted in a Wallac 1410 liquid scintillation counter. The biological activity of peptide analogues was measured as the rate of mmol glucose incorporation into muscle glycogen/g tissue/hr.\nThe sensitivity of hemidiaphragm muscle tissue to insulin (0.1-100 mU/ml) on glycogen synthesis was first analyzed. The dose response curves for peptide analogues on the insulin-potentiating effect to glycogen synthesis were then measured using cumulative increasing concentrations (10^−3 10 μmol/ml) of peptides in the presence of insulin (1 mU/ml). The biological activity of each peptide analogue was measured as the rate of glucose incorporation into muscle glycogen (μmol/g tissue/hr), and represented by the mean±SEM from eight determinations.\nTo determine the insulin-potentiating effect of the peptide analogues, the rates of incorporation of glucose into muscle glycogen were measured. The rates of glycogen synthesis (μmol/g tissue/hr) were 0.52±0.05, 0.60±0.04, 1.27±0.06 and 1.52±0.07 inresponse to 0.33, 1, 3.33 and 10 mU/ml insulin respectively, as shown in FIG. 1.\nThe insulin-potentiating effect of the peptide analogues was then observed by studying their dose response. curves for glucose incorporation into glycogen in the presence of 1 mU/ml exogenous insulin. The effects of peptides 1, 3, 4, 6, 7, 8 and 10 were evident at doses higher than 0.01 μmol/ml, and continued to increase with increasing peptide concentration to 1 μmol/ml, as shown in FIGS. 2A and 2B.\nThe activity of each analogue was assessed by in vitro measurement of glycogen synthesis in muscle, as described above."}, "[2]": {"test_system": "adipose tissue", "experiment": "Ex vivo glucose transport assay in adipose tissue of chronically treated mice", "assay_type": "cell-based, mouse", "settings": "after 14 days treatment", "procedure": "(c) Glucose transport assay Glucose transport in adipose tissue extracted from saline-treated and chronically peptide 3-treated mice was analyzed by an ex vivo glucose uptake assay. Adipose tissues was harvested from mice which had received saline (n=5) or peptide 3 (n=4) in the IPGTT, and used for a glucose transport assay. Mice were sacrificed by a lethal injection of pentabarbitone to the heart. Epididymal fat from male mice or peritoneal fat from female mice was used. Adipose tissues were rinsed in saline and then sliced into even pieces for weight determination. Tissues were placed in flasks and incubated in 2 ml KRB buffer (pH 7.4) containing D-glucose (10 mM final concentration) with vigorous agitation at 37° C. for 2 h under an atmosphere of carbogen. All samples were then placed on ice to reduce glycolysis. Tissues were removed from flasks, and the remaining solutions were analyzed for glucose concentrations using a glucose analyzer. Glucose uptake by each tissue sample was calculated, and compared to tissue free buffer controls."}}, "note": "Square brackets hold non-standard residues; d marks the D form. Ends that are not written are not given here.", "data": [{"substance": "Arg-D-Ala-Phe-Phe-NH2 (R[dA]FF-NH2; N-terminus assumed; SMILES C[C@@H](NC(=O)[C@@H](N)CCCNC(=N)N)C(=O)N[C@@H](Cc1ccccc1)C(=O)N[C@@H](Cc1ccccc1)C(N)=O) [Peptide 3]", "values": [{"measurement": "maximum stimulation of the rate of glycogen synthesis", "setting": "[1]; 10 μmol/ml peptide, 1 mU/ml insulin", "value": "up to 1.44±0.04 mol/g tissue/hr"}, {"measurement": "in vitro glycogen synthesis", "setting": "[1]; 0.01-1 μmol/ml peptide (p<0.05), FIG. 2A", "value": "significantly increased"}, {"measurement": "Activity", "setting": "[1]; Table 6 (corrected), summary of Table 5", "value": "active"}, {"measurement": "more glucose transported than adipose tissue from saline-treated mice", "setting": "[2]", "value": 38, "unit": "%"}, {"measurement": "glucose transport by adipose tissue", "setting": "[2]; 10 mM D-glucose, 2 h, 37° C.", "value": "1.67±0.18", "unit": "nmol/mg tissue/h"}]}]}
